# Measured values reported in patent US20240391889A1, “ANTIMICROBIAL COMPOUNDS AND THE METHODS OF USE” (priority 2021, published 2024).
# Numbered stars: 1 amine (or outer) side, 2 acyl side, 3 side chain; on linkers, the order of the positions; unused ones are H or OH. Square brackets hold non-standard residues; d marks the D form. Peptide text beside a SMILES is read from it. N(tridecyl)Gly = CCCCCCCCCCCCCNCC(=O)O; X1 = CC(c1ccccc1)N(CC(=O)[*:2])[*:1]; NFurfurylGly = O=C(O)CNCc1ccco1; Gly(N(CH2)3NH2) = NCCCNCC(=O)O; Nphe = O=C(O)CNCc1ccccc1; NPrGly = CCCNCC(=O)O; Nlys = NCCCCNCC(=O)O
# Tests used:
# C. albicans = format: cell-based, Candida albicans; conditions: planktonic, 24 h, RPMI-MOPS
# Description: (§1) This screening led to the discovery of RMG9-11 (FIG. 2C). The minimum inhibitory concentration (MIC) of resynthesized RMG9-11 was initially determined against C. albicans, C. neoformans, and the ESKAPE bacteria via CSLI guidelines (CLSI. Methods for Dilution Antimicrobial Susceptibility Tests for Bacteria That Grow Aerobically, 11th Edition. Clinical and Laboratory Standards Institute (2018); CLSI. Reference method for broth dilution antifungal susceptibility testing of yeasts; approved standard-third edition; CLSI document M27-A3. Clinical and Laboratory Standards Institute (2008)). […] C. albicans clinical isolates include a reference strain (M1), fluconazole susceptible strains (M4 and M6), and fluconazole resistant strains (M2, M3, M5, and M7). ATCC 64124 is multidrug resistant C. albicans strain that is resistant to amphotericin B, fluconazole, caspofungin, and flucytosine. All MICs were performed under CSLI guidelines in triplicate on at least three different days.
# (§2) The minimum inhibitory concentration (MIC) of peptoids against fungal pathogens C. albicans and C. neoformans was determined following CLSI guidelines (Reference method for broth dilution antifungal susceptibility testing of yeasts; approved standard-third edition; CLSI document M27-A3.” CLSI. 2008.). Colonies were transferred from a streaked YPD plate to 0.85% saline to reach an OD530 between 0.18 and 0.25. This inoculant was diluted 1:100 into RPMI-MOPS and then further diluted 1:20 into RPMI-MOPS. 198 μL of inoculant was seeded into each well of a 96 well black-walled plate. 2-fold serial dilutions of 100× peptoid solutions were prepared in water and 2 μL of peptoid were added to each well in triplicate. […] MIC was defined as the lowest concentration of compound preventing fungal growth. This assay was repeated 3 times on separate days with each compound.
# [1] = system: fluconazole resistant and susceptible strains of C. albicans; format: cell-based, Candida albicans; conditions: regardless of fluconazole susceptibility
# Description: as §1, §2
# C. albicans M4 = format: cell-based, Candida albicans; conditions: fluconazole susceptible strain
# Description: as §1, §2
# C. albicans M5 = format: cell-based, Candida albicans; conditions: fluconazole resistant strain
# Description: as §1, §2
# C. albicans ATCC 64124 = format: cell-based, Candida albicans; conditions: resistant to amphotericin B, fluconazole, caspofungin, flucytosine
# Description: as §1, §2
# C. albicans M1 = format: cell-based, Candida albicans; conditions: reference strain
# Description: as §1, §2
# C. albicans M7 = format: cell-based, Candida albicans; conditions: fluconazole resistant strain
# Description: as §1, §2
# C. albicans M2 = format: cell-based, Candida albicans; conditions: fluconazole resistant strain
# Description: as §1, §2
# C. albicans M6 = format: cell-based, Candida albicans; conditions: fluconazole susceptible strain
# Description: as §1, §2
# C. albicans M3 = format: cell-based, Candida albicans; conditions: fluconazole resistant strain
# Description: as §1, §2
# C. glabrata = format: cell-based, Candida glabrata
# HepG2 liver cells = experiment: in vitro; format: cell-based
# Experimental: (§3) The mammalian cell lines that were tested (HepG2, 3T3, and HaCat) were incubated with RMG9-11 for 72 hours and cell viability was determined via mitochondrial activity using an MTT reduction assay where viable cells reduce MTT to formazan. Toxicity is reported as the concentration of the peptoid that results in a 50% reduction in viable cells, termed toxicity dose 50% or TD50. […] SR is defined as the TD50 divided by MIC and provides a measure of the therapeutic window for a compound. Typically for most lead compounds that would continue through development and optimization, a SR of 10 is preferred while an SR of 100 is more desirable for a compound moving into preclinical animal model evaluation.
# (§4) Hepatocellular carcinoma (HepG2), mouse fibroblast (3T3), and human keratinocyte (HaCat) cells were cultured in Dulbeco modified eagle media (DMEM) containing 10% fetal bovine serum (FBS) and 1% penicillin, streptomycin, and glutamine (PSG) at 37° C. and 5% CO2. Cells were collected and adjusted to […] to 4×10^5 cells/mL in phenol-red free DMEM and plated (100 μL) 96 well plates. 2-fold serial dilutions of 10× peptoid (11.1 μL) were added to each well in triplicate. Water (vehicle) was used as a negative control. Plates were incubated at 37° C. in 5% CO2 for 72 hours. Thiazolyl blue tetrazolium bromide (MTT) was added to each well (5 mg/mL; 20 μL) and incubated for 3 hours. Media was removed, DMSO (100 μL) was added, and plates were incubated at 37° C. for 10 minutes. Plates were read on a SPECTRAMAX M5 plate reader (Abs. 570 nm). The concentration of compound resulting in a 50% reduction in growth compared to control (toxicity dose 50%; TD50) was determined using GRAFIT. This procedure was repeated three times on separate days.
# [2] = system: mouse fibroblast (3T3) cells; experiment: in vitro; format: cell-based
# Experimental: as §3, §4
# in vitro = format: cell-based, human
# Experimental: as §3, §4
# [3] = system: human keratinocyte (HaCat) cells; experiment: in vitro; format: cell-based
# Experimental: as §3, §4
compound,measurement,setting,value
CCCCCCCCCCCCCNCC(=O)N(CCC)CC(=O)N(CC(=O)N(CCCCN)CC(=O)N(CC(=O)N(CC(=O)N(CCCN)CC(N)=O)Cc1ccccc1)Cc1ccco1)C(C)c1ccccc1 (stereo not shown) [RMG9-11] (H-[N(tridecyl)Gly][NPrGly][X1][Nlys][NFurfurylGly][Nphe][Gly(N(CH2)3NH2)]-NH2),MIC C. albicans,C. albicans,6.25 µg/mL
same,MICs against fluconazole resistant and susceptible strains of C. albicans,[1],6.25 to 12.5 µg/mL
same,MIC C. albicans M4,C. albicans M4,12.5 µg/mL
same,MIC C. albicans M5,C. albicans M5,12.5 µg/mL
same,MIC C. albicans ATCC 64124,C. albicans ATCC 64124,6.25 µg/mL
same,MIC C. albicans M1,C. albicans M1,6.25 µg/mL
same,MIC C. albicans M7,C. albicans M7,6.25 µg/mL
same,MIC C. albicans M2,C. albicans M2,12.5 µg/mL
same,MIC C. albicans M6,C. albicans M6,6.25 µg/mL
same,MIC C. albicans M3,C. albicans M3,12.5 µg/mL
same,MIC C. glabrata,C. glabrata,6.25 µg/mL
same,"toxicity at the MIC against C. albicans, HepG2",HepG2 liver cells,no toxicity
same,TD50 3T3,[2],39 µg/mL
same,"toxicity at the MIC, 3T3",[2],minimal
same,CC50 at 72 h,"in vitro; human, HaCat human keratinocyte cells",53 ± 5 µg/mL
same,CC50 at 72 h,"in vitro; human, HepG2 hepatocellular carcinoma cells",114 ± 5 µg/mL
same,CC50 at 72 h,"in vitro; mouse, 3T3 mouse fibroblast cells",39 ± 2 µg/mL
same,TD50 HaCat,[3],53 µg/mL
same,"toxicity at the MIC, HaCat",[3],minimal
